Experimental data taken from patent US5512558A, “Nor-bile acid derivatives, processes for their preparation and the use of these compounds as medicaments” (Hoechst Aktiengesellschaft, priority 1993, dated 1996).

Molecular target: T1, Na+-dependent bile acid transportation system (brush border membrane vesicles of the ileum) (Oryctolagus cuniculus, UniProt Q28727)
T1 construct: Brush border membrane vesicles were prepared from the intestinal cells of the small intestine; from tissue; host or cells: brush border membrane vesicles from the terminal 7/10 of the small intestine (ileum) of male New Zealand rabbits
T1 sequence (Q28727 1-347): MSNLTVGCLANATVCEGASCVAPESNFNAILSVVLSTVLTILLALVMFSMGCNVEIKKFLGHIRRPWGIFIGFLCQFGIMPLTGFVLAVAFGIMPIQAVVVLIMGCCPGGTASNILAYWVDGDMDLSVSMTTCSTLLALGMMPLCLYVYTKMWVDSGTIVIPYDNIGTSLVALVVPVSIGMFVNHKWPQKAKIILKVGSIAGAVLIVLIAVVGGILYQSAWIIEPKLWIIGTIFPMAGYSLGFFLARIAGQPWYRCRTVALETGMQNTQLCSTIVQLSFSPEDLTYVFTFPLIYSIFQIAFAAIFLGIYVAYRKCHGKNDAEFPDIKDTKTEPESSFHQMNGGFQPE
Experiment: Inhibition of [3H]-taurocholate uptake in brush border membrane vesicles of the ileum of rabbits
Type: biochemical
Conditions: Na+-dependent part of [3H]-taurocholate uptake (difference Na-T-B minus K-T-B), rabbit ileal brush border membrane vesicles
Experimental: The compounds according to the invention were tested biologically by determination of the inhibition of ^3 H!-taurocholate uptake in the brush border membrane vesicle of the ileum of rabbits. The inhibition test was carried out as follows:
1. Preparation of brush border membrane vesicles from the ileum of rabbits
Brush border membrane vesicles were prepared from the intestinal cells of the small intestine by the so-called Mg^2+ precipitation method. Male New Zealand rabbits (2 to 2.5 kg body weight) were sacrificed by intravenous injection of 0.5 ml of an aqueous solution of 2.5 mg of tetracaine HCl, 100 T 61^R and 25 mg of mebezonium iodide. The small intestine was removed and rinsed with ice-cold physiological saline solution. The terminal 7/10 of the small intestine (measured in the oral-rectal direction, i.e. the terminal ileum, which contains the active Na^+ -dependent bile acid transportation system) was used for preparation of the brush border membrane vesicles. The intestines were frozen in plastic bags under nitrogen at -80° C. For preparation of the membrane vesicles, the frozen intestines were thawed at 30° C. in a water-bath. The mucosa was scraped off and suspended in 60 ml of ice-cold 12 mMTris/HCl buffer (pH 7.1)/300 mM mannitol, 5 mM EGTA/10 mg/l of phenylmethyl-sulfonyl fluoride/1 mg/l of trypsin inhibitor from soybean (32 U/mg)/0.5 mg/l of trypsin inhibitor from bovine lung (193 U/mg)/5 mg/l bacitracin. After dilution to 300 ml with ice-cold distilled water, the mixture was homogenized with an Ultraturrax (18-rod, IKA Werk Stuafen, FRG) for 3 minutes at 75% of the maximum power, while cooling with ice. After addition of 3 ml of 1M MgCl2 solution (final concentration 10 mM), the mixture was left to stand for exactly 1 minute at 0° C. By addition of Mg^2+, the cell membranes aggregate and precipitate, with the exception of the brush border membranes. After centrifugation at 3000×g (5000 rpm, SS-34 rotor) for 15 minutes, the precipitate is discarded and the supernatant, which contains the brush border membranes, is centrifuged at […] (15,000 rpm, SS-34 rotor) for 30 minutes. The supernatant was discarded and the precipitate was rehomogenized in 60 ml of 12 mMTris/HCl buffer (pH 7.1)/60 mM mannitol, 5 mM EGTA using a Potter Elvejhem homogenizer (Braun, Melsungen, 900 rpm, 10 strokes). After addition of 0.1 ml of 1M MgCl2 solution and an incubation time of 15 minutes at 0° C., the mixture was centrifuged again at 3000×g for 15 minutes. The supernatant was then centrifuged again at 46,000×g (15,000 rpm, SS-34 rotor) for 30 minutes. The precipitate was taken up in 30 ml of 10 mM Tris/Hepes buffer (pH 7.4)/300 mM mannitol and resuspended homogeneously by 20 strokes in a Potter Elvejhem homogenizer at 1000 rpm. After centrifugation at 48,000×g (20,000 rpm, SS-34 rotor) for 30 minutes, the precipitate was taken up in 0.5 to 2 ml of Tris/Hepes buffer (pH 7.4)/280 mM mannitol (final concentration 20 mg/ml) and resuspended with the aid of a tuberculin syringe with a 27 gauge needle. The vesicles were either used for transportation studies immediately after preparation, or stored at -196° C. in 4 mg portions in liquid nitrogen.
2. Inhibition of the Na^+ -dependent ^3 H!-taurocholate uptake in brush border membrane vesicles of the ileum
The uptake of substrates in the brush border membrane vesicles described above was determined by means of the so-called membrane filtration technique. 10 μl of the vesicle suspension (100 μg of protein) were pipetted as drops onto the wall of a polystyrene incubation tube (11×70 mm) which contained the incubation medium with the corresponding ligands (90 μl). […]

Structure (SMILES) | quotient of the IC50Na values of the reference substance taurochenodeoxycholate (TCDC) and the test substance
C[C@H](CCC(=O)O)[C@H]1CC[C@H]2[C@@H]3[C@H](O)C[C@@H]4C[C@@H](NC(=O)C[C@@H](C)[C@H]5CC[C@H]6[C@@H]7[C@H](O)C[C@@H]8C[C@H](O)CC[C@]8(C)[C@H]7C[C@H](O)[C@]56C)CC[C@]4(C)[C@H]3C[C@H](O)[C@]12C [Example 32] | 0.65
C[C@H](CCC(=O)O)[C@H]1CC[C@H]2[C@@H]3[C@H](O)C[C@@H]4C[C@@H](NC(=O)C[C@@H](C)[C@H]5CC[C@H]6[C@@H]7[C@H](O)C[C@@H]8C[C@H](O)CC[C@]8(C)[C@H]7C[C@H](O)[C@]56C)CC[C@]4(C)[C@H]3CC[C@]12C [Example 36] | 1.14
C[C@H](CCC(=O)O)[C@H]1CC[C@H]2[C@@H]3[C@H](O)C[C@@H]4C[C@@H](OCCOCCNC(=O)[C@@H](C)[C@H]5CC[C@H]6[C@@H]7[C@H](O)C[C@@H]8C[C@H](O)CC[C@]8(C)[C@H]7C[C@H](O)[C@]56C)CC[C@]4(C)[C@H]3C[C@H](O)[C@]12C [Example 41] | 0.58
CC(C(=O)N[C@H]1CC[C@@]2(C)[C@@H](C1)C[C@@H](O)[C@@H]1[C@@H]2CC[C@]2(C)[C@@H]([C@H](C)CCC(=O)O)CC[C@@H]12)[C@H]1CC[C@H]2[C@@H]3[C@H](O)C[C@@H]4C[C@H](O)CC[C@]4(C)[C@H]3C[C@H](O)[C@]12C (stereo partly shown) [Example 43] | 0.78
C[C@H](CCC(=O)NCC(=O)O)[C@H]1CC[C@H]2[C@@H]3[C@H](O)C[C@@H]4C[C@@H](OCCOCCNC(=O)C[C@@H](C)[C@H]5CC[C@H]6[C@@H]7[C@H](O)C[C@@H]8C[C@H](O)CC[C@]8(C)[C@H]7C[C@H](O)[C@]56C)CC[C@]4(C)[C@H]3C[C@H](O)[C@]12C [Example 57] | 0.34
C[C@H](CCC(=O)N[C@H]1CC[C@@]2(C)[C@@H](C1)C[C@@H](O)[C@@H]1[C@@H]2C[C@H](O)[C@]2(C)[C@@H]([C@H](C)CC(=O)O)CC[C@@H]12)[C@H]1CC[C@H]2[C@@H]3[C@H](O)C[C@@H]4C[C@H](O)CC[C@]4(C)[C@H]3CC[C@]12C [Example 65] | 0.64
C[C@H](CC(=O)O)[C@H]1CC[C@H]2[C@@H]3[C@H](O)C[C@@H]4C[C@@H](NC(=O)[C@@H](C)[C@H]5CC[C@H]6[C@@H]7[C@H](O)C[C@@H]8C[C@H](O)CC[C@]8(C)[C@H]7C[C@H](O)[C@]56C)CC[C@]4(C)[C@H]3C[C@H](O)[C@]12C [Example 69] | 0.86
